Measurements reported in patent US7396857B2, “Therapeutic combinations for the treatment or prevention of depression” (Wyeth, priority 2005, dated 2008).

Experiments:
Male Swiss Webster mice [1] = assay: Tail suspension test; format: in vivo
Excerpt: Compound 1, (7-(2,6-dichlorophenyl)-5-fluoro-2,3-dihydrobenzofuran-2-yl)methanamine, was used to exemplify the effectiveness of compounds of the present invention in the tail suspension test. While not a direct model of depression, the tail suspension test is an assay that can evaluate antidepressant-like effects of drugs. Clinically effective drugs such as Prozac (fluoxetine) are effective in this assay. Specifically, they decrease the amount of time the mice spend immobile after being hung upside down by their tails during the test. It is impossible to determine if a mouse is indeed depressed. However, the fact that clinically effective antidepressants reduce immobility lends predictive validity to the model.
Male Swiss Webster mice (Charles River) weighing 20-35 g were used throughout this study. They were housed in groups of five per cage in an AALAC-accredited facility that was maintained on a 12-h light dark cycle (lights on at 0600 h) and had free access to food and water. Experimental groups consisted of 12 mice, randomly assigned to treatment groups. All experiments were performed between 9:00 AM and noon in accordance to the Guide for the Care and Use of Laboratory Animals as adopted and promulgated by the National Institutes of Health (Pub. 85-23, 1985).
Solutions of Compound 1 and paroxetine were freshly prepared. Compound 1 was dissolved in saline and paroxetine was dissolved in distilled water. All drugs were injected i.p. at a volume of 10 ml/kg body weight. Combination treatments were cotreated, 30 minutes prior to the test.
The procedure followed in this study was a variant of the one originally described by Steru et al. (1985). […] The time spent immobile during a 6-minute test session was automatically recorded. […] Data collected were expressed as a mean of immobility time and statistical analysis was performed using a one-way ANOVA with least significant difference (LSD) post-hoc test.

Male Swiss Webster mice [2] = settings: general statement on clinically effective drugs; cited from earlier work

## NCC1Cc2cc(F)cc(-c3c(Cl)cccc3Cl)c2O1 (stereo not shown) [Compound 1, (7-(2,6-dichlorophenyl)-5-fluoro-2,3-dihydrobenzofuran-2-yl)methanamine]
Male Swiss Webster mice [1]; Compound 1 0.1 mg/kg i.p. alone, 30 minutes prior to test, 6-minute session
  produced antidepressant-like effects alone: Neither

## CNCCC(Oc1ccc(C(F)(F)F)cc1)c1ccccc1 (stereo not shown) [Prozac, N-methyl-3-(p-trifluoromethylphenoxy)-3-phenylpropylamine]
Male Swiss Webster mice [2]
  effectiveness in the tail suspension assay (decrease of time spent immobile): effective

## Fc1ccc([C@@H]2CCNC[C@H]2COc2ccc3c(c2)OCO3)cc1 [paroxetine, trans-(−)-3-[(1,3-benzodioxol-5-yloxy)methyl]-4-(4-fluo-rophenyl)piperidine]
Male Swiss Webster mice [1]; paroxetine 10 mg/kg i.p. dosed alone
  decrease in immobility time: 5%
Male Swiss Webster mice [1]; paroxetine 30 mg/kg i.p. dosed alone
  decrease in immobility time: 4%
